# Assay results reported in patent US20220387383A1 (University of South Africa, priority 2019, published 2022).
# “Also recorded” adds a separate entry of the source. Like-named read-outs stand apart in the source and are kept apart here.
# Tests used:
# [1] = literature, in words, cited from earlier work
# [2] = literature, in words, cited from earlier work; remark: listed apart in the source
# [3] = cited from earlier work
# [4] = test system: A375 human malignant melanoma cells; experiment: MTT assay for cell viability, A375 malignant melanoma cells; assay type: cell-based; details: for IC50: A375, MTT, 48 hours, nonlinear regression, read-out: IC50, growth inhibition of melanoma cell line
# Experimental: The A375 human malignant melanoma cells, PANC-1 pancreatic cancer cells and HEK293 human embryonic kidney cells were cultured in media containing 89% DMEM, 10% FBS and 1% penicillin-streptomycin. Once confluent, the cells were washed thrice with 1×PBS and detached from T75 flasks by incubating the cells with 2 mL trypsin-EDTA for 5-10 minutes at 37° C. 2 mL DMEM was added to the cells to stop the reaction of trypsin-EDTA. […] The intensity of this colour is proportional to the state of metabolic activity in the cells and therefore the extent of cell viability. MTT is therefore used to measure the extent to which the drugs are toxic. PANC-1 pancreatic cancer, A375 malignant melanoma and HEK293 human embryonic kidney cell lines were cultured to confluence in CytoOne T75 vented cell culture flasks (USA Scientific). The cells were counted using a haemocytometer and passaged/plated into CytoOne 96 well plates (USA Scientific). Approximately 5 000 cells per 200 μl were plated. The plates were incubated overnight to allow for attachment. The medium was removed after overnight incubation. […] After incubation for 48 hours, 20 μL of MTT reagent was added and incubated for 4 hours. Approximately 200 μL of the solubilisation reagent was added to each well and incubated overnight. The MTT assay was performed using the cell proliferation kit I (MTT) (Roche, Switzerland) by following the instructions in the manual. Absorbance readings were measured at 570 nm using a 96 well plate reader. The percentage of viable cells in treated and untreated cultures was calculated and compared. All statistical analyses were performed using Prism GraphPad Software (San Diego, Calif. 92108, USA). The cell viability data was expressed as the mean±standard deviation (SD) from three independent experiments. The IC50 values were calculated using the non-linear regression test which briefly involves conversion of the ezetimibe concentrations to log values. The log values were matched with their corresponding cell viability percentages. The one sample T-test and Wilcoxon Signed Rank Test were used to determine the statistical difference between the cell viability percentage in treated cells.
# [5] = test system: PANC-1 pancreatic cancer cells; experiment: MTT assay for cell viability, PANC-1 pancreatic cancer cells; assay type: cell-based; details: Homo sapiens; PANC-1, MTT, 48 hours
# Experimental: (§1) The A375 human malignant melanoma cells, PANC-1 pancreatic cancer cells and HEK293 human embryonic kidney cells were cultured in media containing 89% DMEM, 10% FBS and 1% penicillin-streptomycin. Once confluent, the cells were washed thrice with 1×PBS and detached from T75 flasks by incubating the cells with 2 mL trypsin-EDTA for 5-10 minutes at 37° C. 2 mL DMEM was added to the cells to stop the reaction of trypsin-EDTA. […] The intensity of this colour is proportional to the state of metabolic activity in the cells and therefore the extent of cell viability. MTT is therefore used to measure the extent to which the drugs are toxic. PANC-1 pancreatic cancer, A375 malignant melanoma and HEK293 human embryonic kidney cell lines were cultured to confluence in CytoOne T75 vented cell culture flasks (USA Scientific). The cells were counted using a haemocytometer and passaged/plated into CytoOne 96 well plates (USA Scientific). […] Absorbance readings were measured at 570 nm using a 96 well plate reader. The percentage of viable cells in treated and untreated cultures was calculated and compared. […] The cell viability data was expressed as the mean±standard deviation (SD) from three independent experiments. The IC50 values were calculated using the non-linear regression test which briefly involves conversion of the ezetimibe concentrations to log values. […]
# [6] = test system: HEK293 human embryonic kidney cells; experiment: MTT assay for cell viability, HEK293 normal embryonic kidney cells; assay type: cell-based; details: 0.1-200 μM, 48 hours
# Experimental: as §1
# [7] = test system: cholesterol absorption; details: reported experiments with the initial drug lead; cited from earlier work
# [8] = target: Mdm2 (Homo sapiens, UniProt Q00987); details: Warner et al. 2012; cited from earlier work
# Chain of Mdm2 (Q00987 whole entry): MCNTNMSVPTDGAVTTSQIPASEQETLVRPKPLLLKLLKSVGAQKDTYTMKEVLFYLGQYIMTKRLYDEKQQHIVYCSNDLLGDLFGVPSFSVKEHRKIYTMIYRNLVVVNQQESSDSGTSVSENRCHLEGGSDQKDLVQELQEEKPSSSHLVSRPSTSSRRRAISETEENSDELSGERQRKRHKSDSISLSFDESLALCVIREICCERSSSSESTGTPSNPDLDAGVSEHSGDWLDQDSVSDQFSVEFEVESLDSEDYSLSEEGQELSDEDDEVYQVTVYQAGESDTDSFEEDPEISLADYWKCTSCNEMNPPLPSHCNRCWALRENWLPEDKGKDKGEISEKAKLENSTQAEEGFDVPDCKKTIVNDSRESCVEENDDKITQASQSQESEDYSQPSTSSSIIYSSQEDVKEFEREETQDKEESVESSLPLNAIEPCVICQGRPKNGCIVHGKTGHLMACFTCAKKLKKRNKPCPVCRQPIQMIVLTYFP
# [9] = ezetimibe and/or the glucuronide metabolite
compound,measurement,setting,value
COc1cc(/C=C/C(=O)CC(=O)/C=C/c2ccc(O)c(OC)c2)ccc1O [Curcumin],Bioavailability,[1],Poor
same,Bioavailability,[1]; listed as curcumin,poor bioavailability; also recorded: low bioavailability
O=C1[C@H](CC[C@H](O)c2ccc(F)cc2)[C@@H](c2ccc(O)cc2)N1c1ccc(F)cc1 [Ezetimibe],Aqueous Solubility,[2],Poor
same,Aqueous Solubility,[2]; listed as ezetimibe,highly insoluble
same,Fraction metabolised in the intestine to the glucuronide metabolite,"[3]; by UGT 1A1, 1A3 and 2B15",Up to 80%
same,Excreted in the faeces,[3]; [9],90%
same,Excreted in urine,[3]; [9],10%
same,IC50,[4],30.7 µM
same,IC50,"[4]; Homo sapiens, A-375, 48 h",30.7 µM
same,inhibition at 200 µM,"[4]; Homo sapiens, A-375, A375, highest concentration, 200 μM, read-out: Inhibition of the melanoma cell line",> 80%
same,inhibition at 1 µM,"[4]; Homo sapiens, A-375, A375, lowest concentration tested, 1 μM, read-out: Inhibition of the melanoma cell line",~20%
same,Concentrations toxic to cancer cells,"[4]; cancer cells (A375 and PANC-1), MTT",20 to 80 µM
same,Bioavailability,[1],poor bioavailability; also recorded: Almost negligible
same,Bioavailability,[1]; listed as ezetimibe,low bioavailability
same,IC50,[5],71.6 µM
same,Toxicity to normal human embryonic kidney cell line,[6],non-toxic; also recorded: does not exhibit toxicity
COc1ccc([C@@H]2[C@@H](CCCc3ccccc3)C(=O)N2c2ccc(OC)cc2)cc1 [SCH48461],Inhibition of cholesterol absorption,[7],70%
"COc1ccc(C2=NC(c3ccc(Cl)cc3)C(c3ccc(Cl)cc3)N2C(=O)N2CCNC(=O)C2)c(OC(C)C)c1 (stereo not shown) [nutlin-3a, 4-(4,5-bis(4-chlorophenyl)-2-(2-isopropoxy-4-methoxyphenyl)-4,5-dihydro-1H-imidazole-1-carbonyl) piperazin-2-one]",Bioavailability,[1],poor bioavailability
same,"Estimated free energy of binding, kcal/mol (Patch Dock)",[8],−7.7+/−0.6 kcal/mol (Warner et al. 2012)
